Data on 51 molecules can be found in patent publication US12428415B2, “Matriptase 2 inhibitors and uses thereof” (Disc Medicine, Inc., priority 2018, dated 2025).

SMILES strings stand for the structures.

In the test the target is T1, Human Recombinant Matriptase 2 (Homo sapiens, UniProt Q8IU80).
T1 construct: purchased Enzo Life Sciences (an in-house preparation was also used) ALX-201-752-1
T1 sequence (Q8IU80 1-811): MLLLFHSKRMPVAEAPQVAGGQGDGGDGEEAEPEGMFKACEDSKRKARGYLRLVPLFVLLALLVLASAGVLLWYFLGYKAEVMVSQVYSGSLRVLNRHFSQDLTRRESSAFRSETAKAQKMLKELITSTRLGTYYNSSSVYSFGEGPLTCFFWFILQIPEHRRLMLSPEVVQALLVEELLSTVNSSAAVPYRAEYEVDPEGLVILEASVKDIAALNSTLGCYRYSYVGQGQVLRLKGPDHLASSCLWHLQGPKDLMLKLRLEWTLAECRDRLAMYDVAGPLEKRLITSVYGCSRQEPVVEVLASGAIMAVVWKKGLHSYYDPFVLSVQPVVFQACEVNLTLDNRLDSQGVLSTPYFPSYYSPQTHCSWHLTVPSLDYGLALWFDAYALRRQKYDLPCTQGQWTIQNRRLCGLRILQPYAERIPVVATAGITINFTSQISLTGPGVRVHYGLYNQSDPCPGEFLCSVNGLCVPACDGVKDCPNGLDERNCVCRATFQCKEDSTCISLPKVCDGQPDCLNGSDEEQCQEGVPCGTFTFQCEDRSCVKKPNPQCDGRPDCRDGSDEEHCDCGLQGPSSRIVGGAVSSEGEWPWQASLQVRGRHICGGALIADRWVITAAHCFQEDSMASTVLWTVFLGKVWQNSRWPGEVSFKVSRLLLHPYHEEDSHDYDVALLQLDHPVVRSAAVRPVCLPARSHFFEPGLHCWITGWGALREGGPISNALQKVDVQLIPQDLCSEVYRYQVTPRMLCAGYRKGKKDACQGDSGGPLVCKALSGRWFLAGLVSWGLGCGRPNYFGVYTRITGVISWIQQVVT
The test can be described thus: Matriptase 2 fluorescence based inhibition assay, Method B (50 mM TRIS pH 7.5, 150 mM NaCl, 0.01% gelatin). The class given is biochemical. To be noted: 1 uM compound, Assay Used = B (Method B); for inhibition at 1 µM: read-out: Mar-2 % inhibition at 1 uM. An outline of the steps: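 Fluorogenic substrate Boc-Gln-Ala-Arg-7-amido-4-methylcoumarin (100 μM) cleavage read at Ex 360/Em 480 nm 60 min after addition, following 30 min enzyme–compound preincubation at 25° C. Enzyme was 7 nM commercial or 15 nM in-house; DMSO 1%. IC50s fitted by non-linear sigmoidal regression.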

In the case of `Cc1c(C(=O)O)n(Cc2cccc3ccccc23)c2cc(C(=N)N)ccc12` [Compound I-638, 6-carbamimidoyl-3-methyl-1-(naphthalen-1-ylmethyl)-1H-indole-2-carboxylic Acid], the inhibition at 1 µM was 50 to 75%.
Take `N=C(N)c1ccc2cc(C(=O)O)n(Cc3cc(Oc4ccc(N)cc4F)cc4ccccc34)c2c1` [Compound I-639]: the inhibition at 1 µM lay within 50 to 75%.
Same read-out and setting: with `Cn1c(C(=O)O)c(Cc2cccc3ccccc23)c2cc(/C(N)=N/O)ccc21` [Compound I-641] the figure was 0 to 25%.
For `N=C(N)c1ccc2cc(C(=O)N[C@H]3CC[C@H](N)CC3)n(Cc3ccc(C(N)=O)c4ccccc34)c2c1` [Compound I-642], the “Mar-2 % inhibition at 1 uM” value is “C (C represents 50%≤I≤75%)”.
Regarding `N/C(=N/O)c1ccc2cc(C(=O)O)n(Cc3cc(Oc4ncccn4)cc4ccccc34)c2c1` [Compound I-643, (Z)-6-(N′-hydroxycarbamimidoyl)-1-((3-(pyrimidin-2-yloxy)naphthalen-1-yl)methyl)-1H-indole-2-carboxylic Acid], the inhibition at 1 µM was in the range of 0 to 25%.
Turning to `N=C(N)c1ccc2cc(N3CCOCC3)n(Cc3cccc4ccccc34)c2c1` [Compound I-644, 2-morpholino-1-(naphthalen-1-ylmethyl)-1H-indole-6-carboximidamide], the inhibition at 1 µM fell in the range of 25 to 50%.
Still for that read-out and setting: with `N=C(N)c1ccc2cc(C(=O)NC3CCC(N)CC3)n(Cc3ccc(C(=N)N)c4ccccc34)c2c1` (stereo not drawn) [Compound I-645] the figure was 25 to 50%.
For the molecule `N=C(N)c1ccc2cc(C(=O)N[C@H]3CC[C@H](N)CC3)n(Cc3ccccc3-c3ccccc3)c2c1` [Compound I-646], the “Mar-2 % inhibition at 1 uM” value is on record as “A (A represents 0%≤I≤25%)”.
In the case of `Cc1ccc(S(=O)(=O)Oc2cc(Cn3c(C(=O)O)cc4ccc(C(=N)N)cc43)c3ccccc3c2)cc1` [Compound I-647], the inhibition at 1 µM was 75 to 100%.
Consider `N=C(N)c1ccc2cc(C(=O)O)n(Cc3cc(OC(F)F)cc4ccccc34)c2c1` [Compound I-648], for which the inhibition at 1 µM was in the range of 50 to 75%.
With `N=C(N)c1ccc2cc(C(=O)O)n(Cc3cc(Cc4ccccc4)cc4ccccc34)c2c1` [Compound I-649], the inhibition at 1 µM lay in the range of 0 to 25%.
For `NC(=NO)c1ccc2cc(C(=O)O)n(Cc3cccc4ccccc34)c2n1` [Compound I-650], the inhibition at 1 µM is 0 to 25%.
With `N=C(N)c1ccc2c(c1)cc(C(=O)O)n2Cc1cccc2ccccc12` [Compound I-651], the inhibition at 1 µM was 0 to 25%.
Regarding `N=C(N)c1ccc2cc(C(=O)N[C@H]3CC[C@H](N)CC3)n(Cc3c(Cl)c(Sc4ccccc4)cc4ccccc34)c2c1` [Compound I-652], the inhibition at 1 µM was 50 to 75%.
On the same count and under the same terms, with `N=C(N)c1ccc2cc(C(=O)O)n(Cc3c(Cl)c(Sc4ccccc4)cc4ccccc34)c2c1` [Compound I-653] the figure was 0 to 25%; with `N=C(N)c1ccc2cc(C(=O)O)n(-c3ccc4ccccc4c3)c2c1` [Compound I-654], 0 to 25%.
The same measure, in the same setting: with `N=C(N)c1ccc2cc(C(=O)O)n(Cc3cc(Oc4ccsc4)cc4ccccc34)c2c1` [Compound I-655] the figure was 50 to 75%; with `N=C(N)c1ccc2cc(C(=O)O)n(Cc3cc(Nc4ccccc4)cc4ccccc34)c2c1` [Compound I-656], 50 to 75%.
Take `N#Cc1c(C(=O)N[C@H]2CC[C@H](N)CC2)n(Cc2cccc3ccccc23)c2cc(C(=N)N)ccc12` [Compound I-657]: the “Mar-2 % inhibition at 1 uM” value is listed as “A (A represents 0%≤I≤25%)”.
Consider `CCOC(=O)c1cc2ccc(C(N)=NO)cc2n1Cc1cc(S(=O)(=O)c2ccccc2)cc2ccccc12` [Compound I-658], for which the inhibition at 1 µM was in the range of 0 to 25%.
Turning to `NC(=NO)c1ccc2cc(C(=O)O)n(Cc3cc(S(=O)(=O)c4ccccc4)cc4ccccc34)c2c1` [Compound I-659], the inhibition at 1 µM was 0 to 25%.
In the case of `N/C(=N\O)c1ccc2c(c1)cc(C(=O)O)n2Cc1cccc2ccccc12` [Compound I-660], the inhibition at 1 µM is 0 to 25%.
In the case of `N=C(N)c1ccc2cc(C(=O)O)n(Cc3cc(Oc4ccccc4Cl)cc4ccccc34)c2c1` [Compound I-661], the inhibition at 1 µM is 25 to 50%.
As for `CCOC(=O)c1cc2ccc(C(=N)N)cc2n1Cc1cc(Oc2ccccc2)cc2ccccc12` [Compound I-662], the inhibition at 1 µM fell in the range of 25 to 50%.
Same read-out and setting: with `CCOC(=O)c1cc2ccc(C(N)=NO)cc2n1Cc1cc(Oc2ccccc2)cc2ccccc12` [Compound I-663] the figure was 0 to 25%; with `CCn1c(C(=O)N[C@H]2CC[C@H](N)CC2)c(Cc2cccc3ccccc23)c2cc(C(=N)NN)ccc21` [Compound I-664], 0 to 25%; with `NC(=NO)c1ccc2cc(C(=O)O)n(Cc3cc(Oc4ccccc4)cc4ccccc34)c2c1` [Compound I-665], 0 to 25%.
Regarding `N=C(N)c1ccc2cc(C(=O)NC3CCC(N)CC3)n(Cc3ccc(CN)c4ccccc34)c2c1` (stereo not drawn) [Compound I-666], the inhibition at 1 µM was 50 to 75%.
As for `N=C(N)c1ccc2cc(C(=O)O)n(Cc3c[nH]c4ccccc34)c2n1` [Compound I-667], the inhibition at 1 µM fell in the range of 25 to 50%.
As for `COc1ccc(Cn2c(C(=O)N[C@H]3CC[C@H](N)CC3)cc3ccc(C(=N)N)cc32)c2ccccc12` [Compound I-668], the inhibition at 1 µM is 75 to 100%.
In the case of `CCOC(=O)c1cc2ccc(C(=N)N)cc2n1Cc1cc(S(=O)(=O)c2ccccc2)cc2ccccc12` [Compound I-669], the inhibition at 1 µM was 25 to 50%.
As for `N=C(N)c1ccc2cc(C(=O)N[C@H]3CC[C@H](N)CC3)n(Cc3cc(Oc4ncccn4)cc4ccccc34)c2c1` [Compound I-670], the inhibition at 1 µM was in the range of 75 to 100%.
Take `N=C(N)c1ccc2cc(NC(=O)[C@H]3CC[C@H](N)CC3)n(Cc3cccc4ccccc34)c2c1` [Compound I-671]: the “Mar-2 % inhibition at 1 uM” value is on record as “C (C represents 50%≤I≤75%)”.
In the case of `N=C(N)c1ccc2cc(C(=O)O)n(Cc3cccc4c(COCc5ccccc5)cccc34)c2c1` [Compound I-672], the inhibition at 1 µM lay within 75 to 100%.
As for `N=C(N)c1ccc2cc(C(=O)N[C@H]3CC[C@H](N)CC3)n(Cc3ccc(C(=O)O)c4ccccc34)c2c1` [Compound I-673], the “Mar-2 % inhibition at 1 uM” value was “B (B represents 25%≤I≤50%)”.
On to `CC(C)COC(=O)NC(=N)c1ccc2cc(C(=O)O)n(Cc3cccc4ccccc34)c2n1` [Compound I-674], for which the inhibition at 1 µM lay within 25 to 50%.
For `CCOC(=O)c1cc2ccc(/C(N)=N/O)cc2n1Cc1cccc2ccccc12` [Compound I-675, Ethyl (Z)-6-(N′-hydroxycarbamimidoyl)-1-(naphthalen-1-ylmethyl)-1H-indole-2-carboxylate], the inhibition at 1 µM lay within 0 to 25%.
`CCOC(=O)c1cc2ccc(C(=N)NC(=O)OCC(C)C)nc2n1Cc1cccc2ccccc12` [Compound I-676]: the inhibition at 1 µM was 0 to 25%.
Turning to `N=C(N)c1ccc2cc(C(=O)O)n(-c3cc(CO)c4ccccc4c3)c2c1` [Compound I-677], the inhibition at 1 µM was in the range of 50 to 75%.
Turning to `N=C(N)c1ccc2cc(C(=O)O)n(Cc3cc(S(=O)(=O)c4ccccc4)cc4ccccc34)c2c1` [Compound I-678], the inhibition at 1 µM fell in the range of 50 to 75%.
As to `N=C(N)c1ccc2cc(C(=O)O)n(Cc3ccc(Oc4ccccc4)c4ccccc34)c2n1` [Compound I-679], the inhibition at 1 µM was in the range of 25 to 50%.
Consider `N=C(N)c1ccc2cc(C(=O)O)n(Cc3cccc4ccc(Oc5ccccc5)cc34)c2c1` [Compound I-680], for which the inhibition at 1 µM lay within 25 to 50%.
As for `N=C(N)c1ccc2cc(C(=O)N[C@H]3CC[C@H](N)CC3)n(-c3cc(CO)c4ccccc4c3)c2c1` [Compound I-681], the inhibition at 1 µM lay within 75 to 100%.
The same measure, in the same setting: in the case of `N=C(N)c1ccc2cc(C(=O)O)n(Cc3cc(OC4CCCCC4)cc4ccccc34)c2c1` [Compound I-682] it was 25 to 50%; in that of `CC1CCCCN1CCCNC(=O)c1cc2ccc(C(=N)N)cc2n1Cc1cccc2ccccc12` (stereo not drawn) [Compound I-683], 50 to 75%.
`CO/N=C(\N)c1ccc2c(c1)c(Cc1cccc3ccccc13)c(C(=O)O)n2C` [Compound I-684]: the inhibition at 1 µM lay in the range of 0 to 25%.
As for `CCn1c(C(=O)O)c(Cc2cccc3ccccc23)c2cc(C(=N)N)ccc21` [Compound I-685], the inhibition at 1 µM was 50 to 75%.
For `COc1cccc(Oc2cc(Cn3c(C(=O)O)cc4ccc(C(=N)N)cc43)c3ccccc3c2)c1` [Compound I-686], the inhibition at 1 µM was 50 to 75%.
`N=C(N)c1ccc2cc(C(=O)N[C@H]3CC[C@H](N)CC3)n(Cc3cncc4ccccc34)c2c1` [Compound I-687]: the “Mar-2 % inhibition at 1 uM” value is “C (C represents 50%≤I≤75%)”.
On to `COc1ccc(Oc2cc(Cn3c(C(=O)O)cc4ccc(C(=N)N)cc43)c3ccccc3c2)cc1` [Compound I-688], for which the inhibition at 1 µM is 50 to 75%.
Consider `Cn1c(C(=O)O)c(Cc2cccc3ccccc23)c2cc(C(=N)N)ccc21` [Compound I-689], for which the inhibition at 1 µM was in the range of 75 to 100%.

As a reminder, the inhibition is the percentage by which the read-out fell short of the control.
